Test results published in patent publication US7569570B2, “Thienopyrimidines, process for preparing the same and use thereof” (Takeda Pharmaceutical Company Limited, priority 2002, dated 2009).

Row | Structure (SMILES) | melting point
1 | CCNC(=O)Nc1ccc(-c2sc3c(c2CN(C)CCN(C)Cc2ccccc2)c(=O)n(-c2ccccc2)c(=O)n3Cc2c(F)cccc2F)cc1 [Example 25, N-{4-[5-{[{2-[benzyl(methyl)amino]ethyl}(methyl)amino]methyl}-1-(2,6-difluorobenzyl)-2,4-dioxo-3-phenyl-1,2,3,4-tetrahydrothieno[2,3-d]pyrimidin-6-yl]phenyl}-N′-ethylurea] | 151 to 153 °C
2 | CCNC(=O)Nc1ccc(-c2sc3c(c2CN(C)CCC(=O)NC)c(=O)n(-c2ccc(F)cc2)c(=O)n3Cc2c(F)cccc2F)cc1 [Example 30] | 237 to 239 °C
3 | CCNC(=O)Nc1ccc(-c2sc3c(c2CN(C)CCC(=O)N(C)C)c(=O)n(-c2ccc(F)cc2)c(=O)n3Cc2c(F)cccc2F)cc1 [Example 32] | 210 to 212 °C
4 | CCNC(=O)Nc1ccc(-c2sc3c(c2CN(C)CCNS(C)(=O)=O)c(=O)n(-c2ccccc2)c(=O)n3Cc2c(F)cccc2F)cc1 [Example 22, N-{2-[{[1-(2,6-difluorobenzyl)-6-(4-{[(ethylamino)carbonyl]amino}phenyl)-2,4-dioxo-3-phenyl-1,2,3,4-tetrahydrothieno[2,3-d]pyrimidin-5-yl]methyl}(methyl)amino]ethyl}methanesulfonamide] | 186 to 188 °C
5 | CCNC(=O)Nc1ccc(-c2sc3c(c2CN(C)CCN2CCCC2=O)c(=O)n(-c2ccc(F)cc2)c(=O)n3Cc2c(F)cccc2F)cc1 [Example 33] | 204 to 206 °C
6 | CCNC(=O)Nc1ccc(-c2sc3c(c2CN(C)CCN(C)S(C)(=O)=O)c(=O)n(-c2ccccc2)c(=O)n3Cc2c(F)cccc2F)cc1 [Example 23, N-{2-[{[1-(2,6-difluorobenzyl)-6-(4-{[(ethylamino)carbonyl]amino)phenyl)-2,4-dioxo-3-phenyl-1,2,3,4-tetrahydrothieno[2,3-d]pyrimidin-5-yl]methyl}(methyl)amino]ethyl}-N-methylmethanesulfonamide] | 216 to 218 °C
7 | CCNC(=O)Nc1ccc(-c2sc3c(c2CN(C)CCC(=O)NC)c(=O)n(-c2ccc(OCCOC)cc2)c(=O)n3Cc2c(F)cccc2F)cc1 [Example 31] | 163 to 165 °C
8 | CCNC(=O)Nc1ccc(-c2sc3c(c2CN(C)CCN(C)S(C)(=O)=O)c(=O)n(-c2ccc(F)cc2)c(=O)n3Cc2c(F)cccc2F)cc1 [Example 37, N-{2-[{[1-(2,6-difluorobenzyl)-6-(4-{[(ethylamino)carbonyl]amino}phenyl)-3-(4-fluorophenyl)-2,4-dioxo-1,2,3,4-tetrahydrothieno[2,3-d]pyrimidin-5-yl]methyl}(methyl)amino]ethyl}-N-methylsulfonamide] | 228 to 230 °C
9 | CCNC(=O)Nc1ccc(-c2sc3c(c2CN(C)CCCC(=O)OCC)c(=O)n(-c2ccccc2)c(=O)n3Cc2c(F)cccc2F)cc1 [Example 6, ethyl 4-[{[1-(2,6-difluorobenzyl)-6-(4-{[(ethylamino)carbonyl]amino}phenyl)-2,4-dioxo-3-phenyl-1,2,3,4-tetrahydrothieno[2,3-d]pyrimidin-5-yl]methyl}(methyl)amino]butanate] | 203 to 204 °C
10 | CCNC(=O)Nc1ccc(-c2sc3c(c2CN(C)CCN2CCCC2=O)c(=O)n(-c2ccc(OCCOC)cc2)c(=O)n3Cc2c(F)cccc2F)cc1 [Example 34] | 175 to 177 °C
11 | CCNC(=O)Nc1ccc(-c2sc3c(c2CN(C)CCN(C)S(C)(=O)=O)c(=O)n(-c2ccc(OCCOC)cc2)c(=O)n3Cc2c(F)cccc2F)cc1 [Example 38, N-{2-[({1-2,6-(difluorobenzyl)-6-(4-{[(ethylamino)carbonyl]amino}phenyl)-3-[4-(2-methoxyethoxy)phenyl]-2,4-dioxo-1,2,3,4-tetrahydrothieno[2,3-d]pyrimidin-5-yl)methyl)(methyl)amino)ethyl)-N-methylsulfonamide] | 197 to 199 °C
12 | CCNC(=O)Nc1ccc(-c2sc3c(c2CN(C)CCN2CCOC2=O)c(=O)n(-c2ccccc2)c(=O)n3Cc2c(F)cccc2F)cc1 [Example 24] | 153 to 155 °C
13 | CCNC(=O)Nc1ccc(-c2sc3c(c2CN(C)CCN(C)C(C)=O)c(=O)n(-c2ccccc2)c(=O)n3Cc2c(F)cccc2F)cc1 [Example 27, N-{2-[{[1-(2,6-difluorobenzyl)-6-(4-{[(ethylamino)carbonyl]amino}phenyl)-2,4-dioxo-3-phenyl-1,2,3,4-tetrahydrothieno[2,3-d]pyrimidin-5-yl]methyl}(methyl)amino]ethyl}-N-methylacetamide] | 180 to 181 °C
14 | CCNC(=O)Nc1ccc(-c2sc3c(c2CN(C)C[C@@H]2CCCN2S(C)(=O)=O)c(=O)n(-c2ccccc2)c(=O)n3Cc2c(F)cccc2F)cc1 [Example 84] | 189 to 191 °C
15 | CCNC(=O)Nc1ccc(-c2sc3c(c2CNCCOC)c(=O)n(-c2ccccc2)c(=O)n3Cc2c(F)cccc2F)cc1 [Example 2, N-[4-(1-(2,6-difluorobenzyl)-5-{[(2-methoxyethyl)amino]methyl}-2,4-dioxo-3-phenyl-1,2,3,4-tetrahydrothieno[2,3-d]pyrimidin-6-yl)phenyl]-N′-ethylurea] | 221 to 223 °C
16 | CCNC(=O)Nc1ccc(-c2sc3c(c2CN(C)CCN2CCCC2=O)c(=O)n(-c2ccccc2)c(=O)n3Cc2c(F)cccc2F)cc1 [Example 20, N-{4-[1-(2,6-difluorobenzyl)-5-({methyl[2-(2-oxo-1-pyrrolidinyl)ethyl]amino}methyl)-2,4-dioxo-3-phenyl-1,2,3,4-tetrahydrothieno[2,3-d]pyrimidin-6-yl]phenyl}-N′-ethylurea] | 140 to 142 °C
17 | CCNC(=O)Nc1ccc(-c2sc3c(c2CN(C)CC(=O)OCC)c(=O)n(-c2ccccc2)c(=O)n3Cc2c(F)cccc2F)cc1 [Example 5, ethyl[{[1-(2,6-difluorobenzyl)-6-(4-{[(ethylamino)carbonyl]amino}phenyl)-2,4-dioxo-3-phenyl-1,2,3,4-tetrahydrothieno[2,3-d]pyrimidin-5-yl]methyl}(methyl)amino]acetate] | 208 to 209 °C
18 | CCNC(=O)Nc1ccc(-c2sc3c(c2CN(C)C2CCCCC2)c(=O)n(-c2ccccc2)c(=O)n3Cc2c(F)cccc2F)cc1 [Example 91, N-{4-[5-{[cyclohexyl(methyl)amino]methyl}-1-(2,6-difluorobenzyl)-2,4-dioxo-3-phenyl-1,2,3,4-tetrahydrothieno[2,3-d]pyrimidin-6-yl]phenyl}-N′-ethylurea] | 210 to 212 °C

Now from value to molecule:

Row | melting point | Structure (SMILES)
19 | 260 to 265 °C | CCNC(=O)Nc1ccc(-c2sc3c(c2CN(C)CCOC)c(=O)n(-c2ccc(O)cc2)c(=O)n3Cc2c(F)cccc2F)cc1 [Example 103]
20 | 240 to 244 °C | CCNC(=O)Nc1ccc(-c2sc3c(c2CN(C)CCC(=O)NCCOC)c(=O)n(-c2ccccc2)c(=O)n3Cc2c(F)cccc2F)cc1 [Example 95, 3-[{[1-(2,6-difluorobenzyl)-6-(4-{[(ethylamino)carbonyl]amino}phenyl)-2,4-dioxo-3-phenyl-1,2,3,4-tetrahydrothieno[2,3-d]pyrimidin-5-yl]methyl}(methyl)amino]-N-(2-methoxyethyl)propanamide]
21 | 236 to 238 °C | CCNC(=O)Nc1ccc(-c2sc3c(c2CN(C)CCOC)c(=O)n(-c2ccc(OCCO)cc2)c(=O)n3Cc2c(F)cccc2F)cc1 [Example 108]
22 | 205 to 207 °C | CCNC(=O)Nc1ccc(-c2sc3c(c2CN(C)CCOC)c(=O)n(-c2ccc(N)cc2)c(=O)n3Cc2c(F)cccc2F)cc1 [Example 97, N-[4-(3-(4-aminophenyl)-1-(2,6-difluorobenzyl)-5-{[2-methoxyethyl(methyl)amino]methyl}-2,4-dioxo-1,2,3,4-tetrahydrothieno[2,3-d]pyrimidin-6-yl)phenyl]-N′-ethylurea]
23 | 203 to 204 °C | CCNC(=O)Nc1ccc(-c2sc3c(c2CN(C)Cc2ccccn2)c(=O)n(-c2ccccc2)c(=O)n3Cc2c(F)cccc2F)cc1 [Example 113]
24 | 232 to 235 °C | CCNC(=O)Nc1ccc(-c2sc3c(c2CN(C)CCOC)c(=O)n(-c2ccc(OCCNS(C)(=O)=O)cc2)c(=O)n3Cc2c(F)cccc2F)cc1 [Example 106]
25 | 215 to 218 °C | CCNC(=O)Nc1ccc(-c2sc3c(c2CN(C)CCC(=O)N(C)C)c(=O)n(-c2ccc(OCCOC)cc2)c(=O)n3Cc2c(F)cccc2F)cc1 [Example 100, 3-[({1-2,6-(difluorobenzyl)-6-(4-{[(ethylamino)carbonyl]amino}phenyl)-3-[4-(2-methoxyethoxy)phenyl]-2,4-dioxo-1,2,3,4-tetrahydrothieno[2,3-d]pyrimidin-5-yl)methyl)(methyl)amino)-N,N-dimethylpropanamide]
26 | 208 to 210 °C | CCNC(=O)Nc1ccc(-c2sc3c(c2CN(C)C(C)C)c(=O)n(-c2ccccc2)c(=O)n3Cc2c(F)cccc2F)cc1 [Example 92, N-[4-(1-(2,6-difluorobenzyl)-5-{[isopropyl (methyl)amino]methyl}-2,4-dioxo-3-phenyl-1,2,3,4-tetrahydrothieno[2,3-d]pyrimidin-6-yl)phenyl]-N′-ethylurea]
27 | 215 to 218 °C | CCNC(=O)Nc1ccc(-c2sc3c(c2CN(C)CCOC)c(=O)n(-c2ccc(OCCOC)cc2)c(=O)n3Cc2c(F)cccc2F)cc1 [Example 104]
28 | 240 to 244 °C | CCNC(=O)Nc1ccc(-c2sc3c(c2CN(C)CCC(=O)N2CCCC2)c(=O)n(-c2ccccc2)c(=O)n3Cc2c(F)cccc2F)cc1 [Example 94, N-{4-[1-(2,6-difluorobenzyl)-5-({methyl[3-oxo-3-(1-pyrrolidinyl)propyl]amino}methyl)-2,4-dioxo-3-phenyl-1,2,3,4-tetrahydrothieno[2,3-d]pyrimidin-6-yl]phenyl}-N′-ethylurea]
29 | 230 to 233 °C | CCNC(=O)Nc1ccc(-c2sc3c(c2CN(C)CCOCCOCC)c(=O)n(-c2ccccc2)c(=O)n3Cc2c(F)cccc2F)cc1 [Example 111, N-[4-(1-(2,6-difluorobenzyl)-5-[{[2-(2-ethoxy)ethoxy]ethyl(methyl)amino}methyl]-2,4-dioxo-3-phenyl-1,2,3,4-tetrahydrothieno[2,3-d]pyrimidin-6-yl)phenyl]-N′-ethylurea]
30 | 243 to 244 °C | CCNC(=O)Nc1ccc(-c2sc3c(c2CN(C)Cc2ccccn2)c(=O)n(-c2ccc(F)cc2)c(=O)n3Cc2c(F)cccc2F)cc1 [Example 114]
